# Laboratory results as given in US20100152434A1, “Protein Kinase-binding Nucleosides and Associated Methods” (priority 2007, published 2010).
# Where two headings read alike, the source gives them in different places.
# Experiments:
# [1] = system: EKVX
# [2] = system: HOP-92
# [3] = system: NCI-H23
# [4] = system: HCT-15
# [5] = system: HT29
# [6] = system: SK-MEL-2
# [7] = system: UACC-62
# [8] = system: IGROV1
# [9] = system: OVCAR-3
# [10] = system: OVCAR-5
# [11] = system: TK-10
# [12] = system: MCF7
# [13] = system: MDA-MB-231/ATCC
# [14] = system: BT-549
# [15] = system: T-47D
# [16] = system: CCRF-CEM; test: cells; conditions: Homo sapiens
# [17] = system: A549/ATCC; test: cells; conditions: Homo sapiens
# [18] = system: EKVX; test: cells; conditions: Homo sapiens
# [19] = system: NCI-H226; test: cells; conditions: Homo sapiens
# [20] = system: NCI-H522; test: cells; conditions: Homo sapiens
# [21] = system: U251; test: cells; conditions: Homo sapiens
# [22] = system: MALME-3M; test: cells; conditions: Homo sapiens
# [23] = system: SK-MEL-2; test: cells; conditions: Homo sapiens
# [24] = system: OVCAR-4; test: cells; conditions: Homo sapiens
# [25] = system: 788-0; test: cells; conditions: Homo sapiens, 786-0
# [26] = system: RXF 393; test: cells; conditions: Homo sapiens
# [27] = system: NCI/ADR-RES; test: cells; conditions: Homo sapiens
structure (smiles),measurement,setting,value
"CNC(=O)NC[C@H]1O[C@@H](n2cnc3c(NC(=O)Nc4ccccc4)ncnc32)[C@H](O[Si](C)(C)C(C)(C)C)[C@@H]1CC(=O)N(C)OC [Compound 13, 2′-O-(tert-Butyldimethylsilyl)-3′,5′-dideoxy-3′-[(N-methoxy-N-methylcarboxamido)methyl]-5′-[(N-methylcarbamoyl)amino]-N^6-(N-phenylcarbamoyl)adenosine]",TGI,[1],>1.00E−4 Molar
same,Percent Growth,[1]; Log10 Concentration −4.0,36%
same,Percent Growth,[1]; Log10 Concentration −5.0,60%
same,Percent Growth,[1]; Log10 Concentration −6.0,95%
same,Percent Growth,[1]; Log10 Concentration −7.0,95%
same,Percent Growth,[1]; Log10 Concentration −8.0,94%
same,TGI,[2],2.43E−5 Molar
same,Percent Growth,[2]; Log10 Concentration −4.0,−43%
same,Percent Growth,[2]; Log10 Concentration −5.0,27%
same,Percent Growth,[2]; Log10 Concentration −6.0,67%
same,Percent Growth,[2]; Log10 Concentration −7.0,93%
same,Percent Growth,[2]; Log10 Concentration −8.0,80%
same,TGI,[3],>1.00E−4 Molar
same,Percent Growth,[3]; Log10 Concentration −4.0,43%
same,Percent Growth,[3]; Log10 Concentration −5.0,71%
same,Percent Growth,[3]; Log10 Concentration −6.0,99%
same,Percent Growth,[3]; Log10 Concentration −7.0,103%
same,Percent Growth,[3]; Log10 Concentration −8.0,106%
same,TGI,[4],>1.00E−4 Molar
same,Percent Growth,[4]; Log10 Concentration −4.0,37%
same,Percent Growth,[4]; Log10 Concentration −5.0,40%
same,Percent Growth,[4]; Log10 Concentration −6.0,93%
same,Percent Growth,[4]; Log10 Concentration −7.0,94%
same,Percent Growth,[4]; Log10 Concentration −8.0,96%
same,TGI,[5],>1.00E−4 Molar
same,Percent Growth,[5]; Log10 Concentration −4.0,17%
same,Percent Growth,[5]; Log10 Concentration −5.0,32%
same,Percent Growth,[5]; Log10 Concentration −6.0,100%
same,Percent Growth,[5]; Log10 Concentration −7.0,107%
same,Percent Growth,[5]; Log10 Concentration −8.0,104%
same,TGI,[6],8.31E−5 Molar
same,Percent Growth,[6]; Log10 Concentration −4.0,−5%
same,Percent Growth,[6]; Log10 Concentration −5.0,62%
same,Percent Growth,[6]; Log10 Concentration −6.0,92%
same,Percent Growth,[6]; Log10 Concentration −7.0,83%
same,Percent Growth,[6]; Log10 Concentration −8.0,85%
same,TGI,[7],>1.00E−4 Molar
same,Percent Growth,[7]; Log10 Concentration −4.0,39%
same,Percent Growth,[7]; Log10 Concentration −5.0,69%
same,Percent Growth,[7]; Log10 Concentration −6.0,96%
same,Percent Growth,[7]; Log10 Concentration −7.0,107%
same,Percent Growth,[7]; Log10 Concentration −8.0,102%
same,TGI,[8],6.57E−5 Molar
same,Percent Growth,[8]; Log10 Concentration −4.0,−6%
same,Percent Growth,[8]; Log10 Concentration −5.0,26%
same,Percent Growth,[8]; Log10 Concentration −6.0,82%
same,Percent Growth,[8]; Log10 Concentration −7.0,89%
same,Percent Growth,[8]; Log10 Concentration −8.0,89%
same,TGI,[9],>1.00E−4 Molar
same,Percent Growth,[9]; Log10 Concentration −4.0,6%
same,Percent Growth,[9]; Log10 Concentration −5.0,41%
same,Percent Growth,[9]; Log10 Concentration −6.0,100%
same,Percent Growth,[9]; Log10 Concentration −7.0,107%
same,Percent Growth,[9]; Log10 Concentration −8.0,95%
same,TGI,[10],>1.00E−4 Molar
same,Percent Growth,[10]; Log10 Concentration −4.0,35%
same,Percent Growth,[10]; Log10 Concentration −5.0,71%
same,Percent Growth,[10]; Log10 Concentration −6.0,92%
same,Percent Growth,[10]; Log10 Concentration −7.0,98%
same,Percent Growth,[10]; Log10 Concentration −8.0,99%
same,TGI,[11],>1.00E−4 Molar
same,Percent Growth,[11]; Log10 Concentration −4.0,17%
same,Percent Growth,[11]; Log10 Concentration −5.0,65%
same,Percent Growth,[11]; Log10 Concentration −6.0,104%
same,Percent Growth,[11]; Log10 Concentration −7.0,106%
same,Percent Growth,[11]; Log10 Concentration −8.0,99%
same,TGI,[12],>1.00E−4 Molar
same,Percent Growth,[12]; Log10 Concentration −5.0,34%
same,Percent Growth,[12]; Log10 Concentration −6.0,96%
same,Percent Growth,[12]; Log10 Concentration −7.0,95%
same,Percent Growth,[12]; Log10 Concentration −8.0,91%
same,TGI,[13],>1.00E−4 Molar
same,Percent Growth,[13]; Log10 Concentration −4.0,5%
same,Percent Growth,[13]; Log10 Concentration −5.0,55%
same,Percent Growth,[13]; Log10 Concentration −6.0,94%
same,Percent Growth,[13]; Log10 Concentration −7.0,104%
same,Percent Growth,[13]; Log10 Concentration −8.0,97%
same,TGI,[14],>1.00E−4 Molar
same,Percent Growth,[14]; Log10 Concentration −4.0,26%
same,Percent Growth,[14]; Log10 Concentration −5.0,70%
same,Percent Growth,[14]; Log10 Concentration −6.0,96%
same,Percent Growth,[14]; Log10 Concentration −7.0,98%
same,Percent Growth,[14]; Log10 Concentration −8.0,95%
same,TGI,[15],>1.00E−4 Molar
same,Percent Growth,[15]; Log10 Concentration −4.0,17%
same,Percent Growth,[15]; Log10 Concentration −5.0,56%
same,Percent Growth,[15]; Log10 Concentration −6.0,84%
same,Percent Growth,[15]; Log10 Concentration −7.0,89%
same,Percent Growth,[15]; Log10 Concentration −8.0,90%
same,GI50,[16],6.37 µM
same,CC50,[16]; read-out: LC50,> 100 µM
same,GI50,[17]; A549,9.35 µM
same,CC50,"[17]; A549, read-out: LC50",> 100 µM
same,GI50,[18],26.4 µM
same,CC50,[18]; read-out: LC50,> 100 µM
same,GI50,[19]; NCI-H226,41.9 µM
same,CC50,"[19]; NCI-H226, read-out: LC50",> 100 µM
same,GI50,[20]; NCI-H522,11.1 µM
same,CC50,"[20]; NCI-H522, read-out: LC50",> 100 µM
same,GI50,[21]; U-251,5.66 µM
same,CC50,"[21]; U-251, read-out: LC50",> 100 µM
same,GI50,[22],11.4 µM
same,CC50,[22]; read-out: LC50,> 100 µM
same,GI50,[23]; SK-MEL-2,14.9 µM
same,CC50,"[23]; SK-MEL-2, read-out: LC50",> 100 µM
same,GI50,[24]; OVCAR-4,53 µM
same,CC50,"[24]; OVCAR-4, read-out: LC50",> 100 µM
same,GI50,[25],9.01 µM
same,GI50,[26]; RXF 393,9.74 µM
same,CC50,"[26]; RXF 393, read-out: LC50",> 100 µM
same,GI50,[27],> 100 µM
same,CC50,[27]; read-out: LC50,> 100 µM
